Activity calls are given as the source filed them.
Legend:
Prothrombin = Prothrombin (Homo sapiens, UniProt P00734); test: Thrombin 1536 HTS Dose Response Confirmation. [Related pubchem assays: 1046 (Thrombin 1536 HTS; hits were confirmed in this assay)]; assay type: functional
[1] = M. tuberculosis H37Rv growth inhibitors, H37Rv strain (AID 1626); assay type: functional
Estrogen receptor = target: T1, Estrogen receptor (Homo sapiens, UniProt P03372); test: ERα coactivator recruitment enhancers – biochemical, TR-FRET, ERα LBD, dose response (AID 737)
T1 sequence (P03372 whole entry): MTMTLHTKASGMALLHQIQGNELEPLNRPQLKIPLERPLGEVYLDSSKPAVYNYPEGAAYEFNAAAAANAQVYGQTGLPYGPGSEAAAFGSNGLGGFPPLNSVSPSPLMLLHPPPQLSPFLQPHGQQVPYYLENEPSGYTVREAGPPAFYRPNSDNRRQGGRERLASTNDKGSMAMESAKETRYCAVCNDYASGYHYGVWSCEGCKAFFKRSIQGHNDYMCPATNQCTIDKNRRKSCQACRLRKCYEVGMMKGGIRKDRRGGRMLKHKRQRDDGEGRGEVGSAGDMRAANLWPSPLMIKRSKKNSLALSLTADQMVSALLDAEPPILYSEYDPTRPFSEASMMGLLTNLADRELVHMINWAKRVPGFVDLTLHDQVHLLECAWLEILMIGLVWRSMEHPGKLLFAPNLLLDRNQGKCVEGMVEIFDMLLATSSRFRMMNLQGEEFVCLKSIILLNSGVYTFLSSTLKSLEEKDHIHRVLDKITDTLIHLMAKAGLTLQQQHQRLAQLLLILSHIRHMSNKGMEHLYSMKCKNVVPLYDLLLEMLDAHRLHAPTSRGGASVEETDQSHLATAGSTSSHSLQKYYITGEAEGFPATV

[2] = growth inhibition of PfATP4-mutant resistant parasites – NITD609-resistant line, SYBR Green, dry powder, dose response (AID 1159571); assay type: functional, cell-based;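 further: parasites synchronized at ring stage by sorbitol before testing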
[3] = toxicity to human HepG2 hepatoma cells – cell-based, plate reader, dry powder samples, cytotoxicity control, dose response (AID 1159569); assay type: functional;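 further: inhibitor potency with signal falling toward the positive control level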
[4] = toxicity to human hepatoma HepG2 cells – cell-based, cherry-picked samples, cytotoxicity control, dose response (AID 1159577); assay type: functional
[5] = Plasmodium falciparum Dd2 Sybr green parasite growth Measured in Cell-Based and Microorganism Combination System Using Plate Reader - 2153-01_Inhibitor_Dose_DryPowder_Activity_Set3.; assay type: functional
[6] = P. falciparum Dd2 growth inhibitors, dose response, SYBR Green, cherry-picked samples (AID 1159567); assay type: functional, cell-based
[7] = growth inhibition of yeast DHODH-expressing 3D7 parasites – SYBR Green, dry powder samples, dose response (AID 1159570); assay type: functional, cell-based;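 further: parasite growth measured after 72 hours of compound exposure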
[8] = Dd2 malaria parasite growth inhibition potency – SYBR Green, dry powder samples, dose response (AID 1159566); assay type: functional, cell-based;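 further: potency for growth inhibition with lower SYBR green DNA signal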
[9] = Dd2 parasite growth inhibition in erythrocytes – SYBR Green, dry powder samples, set 9, dose response (AID 1159568); assay type: functional, cell-based
[10] = target: G-protein coupled receptor 183 (Homo sapiens, UniProt P32249); test: SAR confirmation of small molecule antagonists of the EBI2 receptor via a luminescent beta-arrestin assa.; assay type: functional
[11] = alpha-synuclein stem-loop luciferase translation blockers – H4 neuroglioma cells, luminescence, confirmation (AID 1988); assay type: functional, cell-based
[12] = viability of uninfected HEp-2 cells – cell-based, HTS, cytotoxicity control for RSV inhibitor project, dose response (AID 2410); assay type: functional; conditions: human respiratory syncytial virus
[13] = Luminescence Cell-Based Dose Response HTS to Identify Inhibitors of 5'UTR Stem-Loop Driven Prion Protein mRNA Translation in H4 Neuroglioblastoma Cells. [Related pubchem assays: 1827 (Project Summary), 1813 (Primary HTS)]; assay type: functional
[14] = luciferase reporter signal suppression in cells – H4 neuroglioma cells, luminescence, dose response (AID 1990); assay type: functional, cell-based
Coagulation factor XII = target: T2, Coagulation factor XII (Homo sapiens, UniProt P00748); assay type: functional;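 further: activated factor XIIa alpha cleaving a fluorogenic AMC peptide substrate; inhibitor potency from loss of enzyme activity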
T2 sequence (P00748 whole entry): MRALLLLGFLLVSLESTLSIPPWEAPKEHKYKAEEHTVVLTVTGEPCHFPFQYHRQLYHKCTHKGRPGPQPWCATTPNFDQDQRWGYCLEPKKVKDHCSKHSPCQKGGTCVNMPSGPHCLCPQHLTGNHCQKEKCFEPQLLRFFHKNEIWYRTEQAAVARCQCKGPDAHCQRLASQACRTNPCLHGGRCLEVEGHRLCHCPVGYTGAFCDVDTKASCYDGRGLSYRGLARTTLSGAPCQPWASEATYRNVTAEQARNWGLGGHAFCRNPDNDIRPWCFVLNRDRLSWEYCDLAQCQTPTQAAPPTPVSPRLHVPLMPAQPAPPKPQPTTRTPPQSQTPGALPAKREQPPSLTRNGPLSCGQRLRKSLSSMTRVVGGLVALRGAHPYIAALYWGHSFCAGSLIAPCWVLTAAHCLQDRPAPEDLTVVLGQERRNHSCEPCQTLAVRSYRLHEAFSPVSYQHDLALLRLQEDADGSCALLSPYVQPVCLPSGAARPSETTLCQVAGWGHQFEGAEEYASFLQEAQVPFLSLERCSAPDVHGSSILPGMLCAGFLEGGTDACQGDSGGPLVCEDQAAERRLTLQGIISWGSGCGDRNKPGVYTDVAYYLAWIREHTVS

[15] = viability loss in Vero cells – cytotoxicity control for Vif-APOBEC3G degradation inhibitor project, dose response (AID 1117358); assay type: functional; conditions: Vero
[16] = target: 5-hydroxytryptamine receptor 1A (Homo sapiens, UniProt P08908); assay type: functional
Estrogen receptor beta = Estrogen receptor beta (Homo sapiens, UniProt Q92731); test: blockers of SRC-3 recruitment to ERβ – biochemical, ELISA, streptavidin-HRP readout, orthogonal assay, confirmation (AID 1060)
[17] = target: T3, Carboxy-terminal domain RNA polymerase II polypeptide A small phosphatase 1 (Homo sapiens, UniProt Q9GZU7); test: CTDSP1 inhibitors, concentration-response, biochemical, absorbance readout, ultra-high-throughput screen actives (AID 540297); assay type: functional
T3 sequence (Q9GZU7 whole entry): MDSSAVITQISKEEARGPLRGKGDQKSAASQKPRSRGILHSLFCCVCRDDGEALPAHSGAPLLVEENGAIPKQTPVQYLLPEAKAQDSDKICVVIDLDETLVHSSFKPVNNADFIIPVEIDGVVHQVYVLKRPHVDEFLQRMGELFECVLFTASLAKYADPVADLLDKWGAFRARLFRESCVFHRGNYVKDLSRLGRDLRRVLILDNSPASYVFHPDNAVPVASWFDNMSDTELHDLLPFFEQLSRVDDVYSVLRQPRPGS

Chain of Estrogen receptor beta (Q92731 whole entry, the tested form may be a part): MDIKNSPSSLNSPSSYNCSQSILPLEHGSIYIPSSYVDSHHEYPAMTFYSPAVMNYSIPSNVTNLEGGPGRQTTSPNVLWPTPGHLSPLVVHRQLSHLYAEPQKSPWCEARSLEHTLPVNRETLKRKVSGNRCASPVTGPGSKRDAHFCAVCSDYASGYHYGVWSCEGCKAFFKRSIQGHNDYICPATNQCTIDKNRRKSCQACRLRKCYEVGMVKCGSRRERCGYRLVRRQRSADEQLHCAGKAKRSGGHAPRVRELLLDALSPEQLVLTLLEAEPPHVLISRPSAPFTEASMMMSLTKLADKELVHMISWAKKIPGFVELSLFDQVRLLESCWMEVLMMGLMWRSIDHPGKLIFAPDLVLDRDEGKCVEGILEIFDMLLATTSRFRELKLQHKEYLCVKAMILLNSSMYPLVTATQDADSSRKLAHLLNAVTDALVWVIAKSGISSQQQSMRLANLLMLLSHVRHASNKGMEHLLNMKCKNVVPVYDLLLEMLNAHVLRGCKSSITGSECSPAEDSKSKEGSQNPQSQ
Chain of G-protein coupled receptor 183 (P32249 whole entry): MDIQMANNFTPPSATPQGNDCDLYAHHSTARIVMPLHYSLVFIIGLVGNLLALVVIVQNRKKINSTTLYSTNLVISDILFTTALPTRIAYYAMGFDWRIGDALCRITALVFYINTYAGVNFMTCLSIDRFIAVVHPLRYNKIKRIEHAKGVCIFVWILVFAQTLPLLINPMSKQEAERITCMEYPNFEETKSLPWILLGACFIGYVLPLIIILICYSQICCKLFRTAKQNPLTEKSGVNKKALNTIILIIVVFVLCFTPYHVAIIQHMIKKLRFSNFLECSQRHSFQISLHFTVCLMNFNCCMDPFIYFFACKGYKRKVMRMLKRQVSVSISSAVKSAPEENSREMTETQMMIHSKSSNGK
Chain of 5-hydroxytryptamine receptor 1A (P08908 whole entry): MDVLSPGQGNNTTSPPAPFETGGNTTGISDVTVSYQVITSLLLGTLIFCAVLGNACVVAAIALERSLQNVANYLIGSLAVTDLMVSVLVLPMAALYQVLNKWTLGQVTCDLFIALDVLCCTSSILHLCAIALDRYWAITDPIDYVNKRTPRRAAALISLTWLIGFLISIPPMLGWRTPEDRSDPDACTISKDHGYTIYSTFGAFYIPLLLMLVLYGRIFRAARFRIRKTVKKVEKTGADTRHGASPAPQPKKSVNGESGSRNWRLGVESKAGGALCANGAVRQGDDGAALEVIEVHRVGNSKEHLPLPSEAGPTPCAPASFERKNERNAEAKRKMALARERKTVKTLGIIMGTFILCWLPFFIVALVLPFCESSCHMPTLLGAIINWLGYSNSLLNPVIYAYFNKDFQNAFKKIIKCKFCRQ

In the case of `C/C(=C\c1ccccc1)C(=O)n1nnc2ccccc21`, the IC50 (Prothrombin) is reported as 0.846 µM (active).
In the case of `COc1ccc2nc(O)c(CN(C(=O)NC3CCCCC3)C3CCCCC3)cc2c1`, the IC50 [1] is reported as > 100 µM (active).
With `O=C(Cc1ccccc1)Nc1ccc2oc(-c3cccnc3)nc2c1` the EC50 (Estrogen receptor) was 21.2 µM (active).
In the case of `COc1ccccc1C#Cc1ccc([C@H]2[C@@H](C#N)N(C(=O)C3CCCC3)[C@H]2CO)cc1`, the AC50 [2] is reported as 0.808 µM (active), the AC50 [3] is reported as 23.8 µM (active) and the AC50 [4] is reported as 34.1 µM (active). The AC50 [5] was 1.16 µM (active), the AC50 [6] was 0.873 µM (active) and the AC50 [7] was 0.715 µM (active). For the same compound, the AC50 [8] was 0.474 µM (active) and the AC50 [9] was 0.493 µM (active).
In the case of `O=C(/C=C/c1ccc(F)cc1)N1CCN(S(=O)(=O)C2=Cc3ccccc3CC2)CC1`, the IC50 [10] is reported as 0.00115 µM (active).
In the case of `O=C(c1cc2nc(-c3ccccc3)cc(-c3ccccc3)n2n1)N1CCC2(CC1)OCCO2`, the EC50 [11] is reported as 115 µM (active), the CC50 [12] is reported as 28.9 µM (active) and the IC50 (cells) is reported as 3.6 µM (active). For the same compound, the EC50 [13] was 12.9 µM (active) and the EC50 [14] was 24.2 µM (active).
For `COc1cccc(NC(=S)Nc2ccc(Br)cc2Cl)c1`, the IC50 (Coagulation factor XII) was > 50 µM (inactive) and the IC50 (Prothrombin) was > 50 µM (not active).
In the case of `COc1cc(C(=O)NCC(c2ccco2)N2CCCC2)ccc1OCc1c(C)noc1C` (centres undefined), the CC50 [15] is reported as > 40 µM (active).
With `CC(=O)Nc1ccc(S(=O)(=O)N(C)c2ccc(O)cc2)cc1` the EC50 [16] was > 50 µM (not active).
In the case of `N#CC1=C(N)n2c(s/c(=C\c3ccco3)c2=O)=C(C#N)C1c1ccco1` (centres undefined), the IC50 (Estrogen receptor beta) is reported as 1.92 µM (not active) and the IC50 [17] is reported as 3.44 µM (active).
For `Cc1cccc(Oc2ccc(N)cc2)c1`, the IC50 [1] was > 100 µM (active).
